In patent US10030016B2 (Sunesis Pharmaceuticals, Inc., priority 2009, dated 2018) one finds IC50 and EC50 data, which are given here for 19 compounds.

One experiment addresses PDK1 (Homo sapiens (Human), UniProt O15530). As to the kind of experiment: PDK1 kinase assay (coupled PDK1/AKT/FAM-crosstide assay, IMAP fluorescence polarization). Format: biochemical. The method in brief: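 PDK1 activity is measured indirectly through activation of a PIFtide-fused AKT2 construct that phosphorylates FAM-crosstide (100 nM). The reaction uses 0.75 nM PDK1, 40 μM ATP, 30 min, 25° C, with IMAP polarization detection.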
In general terms: Fluorescence polarisation rises when a labelled molecule tumbles more slowly, as on binding a larger partner.

Experiment [1] has as its system phospho-akt (Thr308) in PC-3 cells. As to the kind of experiment: Inhibition of phospho-akt (Thr308) in PC-3 cells, MSD phospho-akt 308 ELISA kit. The settings on record: Homo sapiens, 2 hours, no serum, read-out: EC50. It counts as cell-based. An outline of the steps: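 PC-3 cells (15,000/well, overnight in 10% FBS medium) treated 2 h with three-fold diluted compounds in serum-free medium; DMSO high and 5 μM wortmannin low controls. Lysates captured on BSA-blocked MSD plates overnight at 4 °C, then 1 h antibody detection at RT; phospho-Akt Thr308 read by MSD electrochemiluminescence.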
On the technique in general: ELISA stands for enzyme-linked immunosorbent assay.

Where [2] appears, read: inhibition of phospo-PDK1 in vitro.
The mark [3] stands for this setting: PC-3, 2 h, inhibition of P308 Akt in PC-3 cells, MSD.
Where [4] appears, read: inhibition of P308 Akt in PC-3 cells using MSD.
Setting [5] is: inhibition of P308 Akt in PC-3 cells, MSD.

Each structure is given as a SMILES string. Counter-ions that a name gives are not always drawn. Like-named read-outs stand apart in the source and are kept apart here.

Sequence of PDK1 (O15530 51-359): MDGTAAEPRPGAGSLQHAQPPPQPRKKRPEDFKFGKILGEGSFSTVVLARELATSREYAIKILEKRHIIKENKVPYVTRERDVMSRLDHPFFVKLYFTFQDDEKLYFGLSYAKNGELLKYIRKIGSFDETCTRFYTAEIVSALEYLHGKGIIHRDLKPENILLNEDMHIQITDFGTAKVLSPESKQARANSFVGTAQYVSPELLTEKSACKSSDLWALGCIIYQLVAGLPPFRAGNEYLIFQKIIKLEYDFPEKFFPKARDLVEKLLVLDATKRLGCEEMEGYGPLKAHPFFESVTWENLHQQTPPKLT

As to `C[C@H](NC(=O)c1cccnc1NCc1ccc(-c2c[nH]c(=O)c3ccccc23)s1)c1ccc(F)cc1` [Example 2.9, (S)-N-(1-(4-fluorophenyl)ethyl)-2-(((5-(1-oxo-1,2-dihydroiso-quinolin-4-yl)thiophen-2-yl)methyl)amino)nicotinamide], on PDK1 (setting [2]), the IC50 was 1000 to 5000 nM. Further, the concentration for a half-maximal effect (EC50) in experiment [1] (setting [3]) lay in the range of 1000 to 10000 nM.

Consider `N#Cc1cnc(NCc2ccc(-c3cnc(N)cn3)cc2)c(C(=O)NCc2ccc(F)cc2)c1` [Example 378, 2-(4-(5-aminopyrazin-2-yl)benzylamino)-5-cyano-N-(4-fluorobenzyl) nicotinamide], for which the 50% inhibitory concentration (IC50) against PDK1 (inhibition of PDK1 in vitro) was below 100 nM. In addition, in experiment [1] (setting [4]), the half-maximal effective concentration (EC50) is 1000 to 10000 nM.

The compound `Nc1n[nH]c2ncc(-c3ccc(CNc4ncc(C(F)(F)F)cc4C(=O)Nc4ccncc4)cc3)cc12` [Example 288, 2-(4-(3-amino-1H-pyrazolo [3,4-b]pyridin-5-yl)benzylamino)-N-(pyridin-4-yl)-5-(trifluoromethyl) nicotinamide] yielded an IC50 against PDK1 (inhibition of PDK1 in vitro) below 100 nM. Also, in experiment [1] (setting [4]), the EC50 is 1000 to 10000 nM.

As to `Cn1nc(Nc2ncccc2C(=O)NCc2ccc(F)c(F)c2)c2cc(-c3c[nH]c4ncccc34)ccc21` [Example 14.1, N-(3,4-difluorobenzyl)-2-(1-methyl-5-(1H-pyrrolo[2,3-b]pyridin-3-yl)-1H-indazol-3-ylamino)nicotinamide], on PDK1 (setting [2]), the IC50 is below 100 nM. In addition, the concentration for a half-maximal effect (EC50) in experiment [1] (setting [5]) is 1000 to 10000 nM.

In the case of `CC(NC(=O)c1cccnc1NCc1ccc(-c2ccc3ncnc(N)c3c2)s1)c1ccc(F)c(F)c1` (centres unmarked) [Example 3.19, 2-({[5-(4-aminoquinazolin-6-yl)thiophen-2-yl]methyl}amino)-N-[1-(3,4-difluorophenyl)ethyl] pyridine-3-carboxamide (TFA salt)], the IC50 on PDK1 (setting [2]) fell in the range of 100 to 1000 nM. Further, the concentration for a half-maximal effect (EC50) in experiment [1] (setting [3]) was above 10000 nM.

Turning to `CN(C)CCCNS(=O)(=O)c1cnc(NCc2ccc(-c3ccc4ncnc(N)c4c3)s2)c(C(=O)NCc2ccc(F)c(F)c2)c1` [Example 8.6.14, 2-(((5-(4-aminoquinazolin-6-yl)thiophen-2-yl)methyl)amino)-N-(3,4-difluorobenzyl)-5-(N-(3-(dimethylamino)propyl)sulfamoyl) nicotinamide], on PDK1 (setting [2]), the IC50 is below 100 nM. Besides, the EC50 in experiment [1] (setting [5]) was above 10000 nM.

Consider `CN(C(=O)c1cc(C(F)(F)F)cnc1NCc1ccc(-c2cnc3[nH]nc(N)c3c2)cc1)c1ccc(F)cc1` [Example 290, 2-(4-(3-amino-1H-pyrazolo [3,4-b]pyridin-5-yl)benzylamino)-N-(4-fluorophenyl)-N-methyl-5-(trifluoromethyl) nicotinamide], for which the concentration for half-maximal inhibition (IC50) at PDK1 (inhibition of PDK1 in vitro) was above 5000 nM. Also, the EC50 in experiment [1] (setting [4]) was 1000 to 10000 nM.

Take `Nc1ncnc2ccc(-c3ccc(CNc4nc(C(F)(F)F)ccc4C(=O)NCc4ccc(F)c(F)c4)s3)cc12` [Example 8.12.2, 2-({[5-(4-aminoquinazolin-6-yl)thiophen-2-yl]methyl}amino)-N-(3,4-difluorobenzyl)-6-(trifluoromethyl)pyridine-3-carboxamide]: the IC50 against PDK1 (setting [2]) was below 100 nM. Besides, the half-maximal effective concentration (EC50) in experiment [1] (setting [5]) lay within 1000 to 10000 nM.

At PDK1 (setting [2]), `CNC(=O)c1ncnc2ccc(-c3ccc(CNc4ncccc4C(=O)N[C@@H](C)c4ccc(F)c(F)c4)s3)cc12` [Example 4.25, (S)-6-(5-((3-(1-(3,4-difluorophenyl)ethyl-carbamoyl)pyridin-2-ylamino)methyl)thiophen-2-yl)-N-methylquinazoline-4-carboxamide] returned an IC50 above 5000 nM. Also, the EC50 in experiment [1] (setting [5]) was above 10000 nM.

At PDK1 (inhibition of PDK1 in vitro), `Nc1n[nH]c2ncc(-c3ccc(CNc4ncc(C(F)(F)F)cc4C(=O)NCc4ccc(Cl)cc4)cc3)cc12` [Example 279, 2-(4-(3-amino-1H-pyrazolo [3,4-b]pyridin-5-yl)benzylamino)-N-(4-chlorobenzyl)-5-(trifluoromethyl)nicotinamide] displayed an IC50 below 100 nM. For the same compound, the EC50 in experiment [1] (setting [4]) is below 1000 nM.

Take `C[C@H](NC(=O)c1cc(C#N)cnc1NCc1ccc(-c2cnc3c(c2)CCN3)cc1)c1ccc(F)cc1` [Example 139, (S)-5-cyano-2-(4-(3,4-dihydro-1H-pyrrolo [2,3-b]pyridin-5-yl)benzylamino)-N-(1-(4-fluorophenyl)ethyl) nicotinamide]: the half-maximal inhibitory concentration (IC50) at PDK1 (inhibition of PDK1 in vitro) was below 100 nM. In addition, the EC50 in experiment [1] (setting [4]) is below 1000 nM.

In turn, `C[C@@H](Nc1ncc(C(F)(F)F)cc1C(=O)Nc1ccc(F)cc1)c1ccc(-c2cnc3[nH]nc(N)c3c2)cc1` [Example 422, 2-{(R)-1-[4-(3-Amino-1H-pyrazolo[3,4-b]pyridin-5-yl)-phenyl]-ethylamino}-N-(4-fluoro-phenyl)-5-trifluoromethyl-nicotinamide] displayed an IC50 on PDK1 (inhibition of PDK1 in vitro) below 100 nM. In experiment [1] (setting [4]), the EC50 is below 1000 nM.

At PDK1 (setting [2]), `CCNS(=O)(=O)c1cnc(NCc2ccc(-c3ccc4ncnc(N)c4c3)s2)c(C(=O)NCc2ccc(F)c(F)c2)c1` [Example 8.7.11, 2-({[5-(4-aminoquinazolin-6-yl)thiophen-2-yl]methyl}amino)-N-(3,4-difluorobenzyl)-5-(ethylsulfamoyl)pyridine-3-carboxamide] yielded an IC50 of 100 to 1000 nM. Moreover, in experiment [1] (setting [5]), the EC50 was below 1000 nM.

In turn, `C[C@H](NC(=O)c1cc(C(F)(F)F)cnc1NCc1ccc(-c2ccc3ncnc(N)c3c2)s1)c1ccc(F)c(F)c1` [Example 8.12.6, 2-({[5-(4-aminoquinazolin-6-yl)thiophen-2-yl]methyl}amino)-N-[(1S)-1-(3,4-difluorophenyl)ethyl]-5-(trifluoromethyl)pyridine-3-carboxamide] registered an IC50 at PDK1 (setting [2]) below 100 nM. For the same compound, in experiment [1] (setting [5]), the EC50 is below 1000 nM.

As for `O=C(NCC1CCCC1)c1cccnc1NCc1ccc(-c2c[nH]c3ncccc23)s1` [Example 1.19, 2-(((5-(1H-pyrrolo[2,3-b]pyridin-3-yl)thiophen-2-yl)methyl)amino)-N-4-(cyclopentylmethyl) nicotinamide], the half-maximal inhibitory concentration (IC50) at PDK1 (setting [2]) lay in the range of 1000 to 5000 nM. Moreover, the EC50 in experiment [1] (setting [5]) fell in the range of 1000 to 10000 nM.

As to `C/C=C/c1cnc(NCc2ccc(-c3ccc4ncnc(N)c4c3)s2)c(C(=O)NCc2ccc(F)c(F)c2)n1` [Ex. 10.6, 3-({[5-(4-aminoquinazolin-6-yl)thiophen-2-yl]methyl}amino)-N-(3,4-difluorobenzyl)-6-[(1E)-prop-1-en-1-yl] pyrazine-2-carboxamide], the IC50 against PDK1 (setting [2]) was 100 to 1000 nM. The 50% effective concentration (EC50) in experiment [1] (setting [3]) is 1000 to 10000 nM.

At PDK1 (inhibition of PDK1 in vitro), `C[C@H](NC(=O)c1nc(C#N)cnc1NCc1ccc(-c2cnc(N)cn2)cc1)c1ccc(F)c(F)c1` [Example 376, (S)-3-(4-(5-aminopyrazin-2-yl)benzylamino)-6-cyano-N-(1-(3,4-difluorophenyl)ethyl)pyrazine-2-carboxamide] had an IC50 below 100 nM. Also, the EC50 in experiment [1] (setting [4]) was below 1000 nM.

On PDK1 (setting [2]), `C[C@H](NC(=O)c1cccnc1NCc1ccc(-c2ccc3ncnc(N)c3c2)s1)c1cccnc1` [Example 3.60, (S)-2-(((5-(4-aminoquinazolin-6-yl)thiophen-2-yl)methyl)amino)-N-(1-(pyridin-3-yl)ethyl) nicotinamide (TFA salt)] came in with an IC50 of 100 to 1000 nM. The half-maximal effective concentration (EC50) in experiment [1] (setting [5]) lay within 1000 to 10000 nM.

Consider `C[C@H](NC(=O)c1nc(C#N)cnc1NCc1ccc(-c2cn(CCCN)c3ncnc(N)c23)cc1)c1ccc(F)c(F)c1` [Example 318, (S)-3-(4-(4-amino-7-(3-aminopropyl)-7H-pyrrolo[2,3-d]pyrimidin-5-yl)benzylamino)-6-cyano-N-(1-(3,4-difluoro-phenyl)ethyl)pyrazine-2-carboxamide], for which, at PDK1 (inhibition of PDK1 in vitro), the concentration for half-maximal inhibition (IC50) is below 100 nM. For the same compound, in experiment [1] (setting [4]), the EC50 was below 1000 nM.

A word on the IC50: it is the concentration needed to halve the response being measured. A word on the EC50: it is the midpoint of the concentration-response curve.
